Where two headings read alike, the source gives them in different places.
How the values were obtained:
Assay type in all cases: cell-based
[1] = tested on: Huh7 cells; experiment: LD content in Huh7 cells pre-treated with insulin, Oil-Red-O staining, absorbance OD 540 nm; conditions: procedure of Example 3, read-out: LD content inhibition (EC50)
In short: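 Huh7 cells, mock-treated or pre-treated with 1 mM insulin, were then exposed to compound at the indicated amounts. Lipid droplets stained with Oil Red O and quantified by absorbance at OD 540 nm.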

[2] = tested on: SREBP-1; experiment: SREBP-1 expression in cultured primary human hepatocytes; conditions: procedure of Example 6, read-out: SREBP-1 mRNA inhibition (EC50)
In short: (§1)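 Primary human hepatocytes in culture exposed to a range of HPN-01 derivative concentrations; SREBP-1 and SREBP-2 mRNA expression then measured to assess inhibition.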

[3] = tested on: SREBP-2; experiment: SREBP-2 expression in cultured primary human hepatocytes; conditions: procedure of Example 6, read-out: SREBP-2 mRNA inhibition (EC50)
In short: as §1

[4] = Homo sapiens, Huh-7, Huh7 cells

Compound | EC50 [1, 4] | EC50 ([2]; Homo sapiens, Hepatocyte) | EC50 ([3]; Homo sapiens, Hepatocyte) | EC50 ([1]; Huh7 cells) | EC50 [2] | EC50 [3]
CCCC(=O)Nc1c(C(N)=O)cc(-c2ccc(Cl)cc2)cc1-c1ccc(NC(N)=O)cc1 [HPN-01519, 4′-butyramido-4-chloro-4″-ureido-[1,1′:3′,1″-terphenyl]-5′-carboxamide] | 810 nM | 1510 nM | 2750 nM |  |  | 
CCC(=O)Oc1ccc(-c2cc(C(N)=O)c(N)c(-c3ccc(S(N)(=O)=O)cc3)c2)cc1 [HPN-01305, 4′-amino-5′-carbamoyl-4″-sulfamoyl-[1,1′:3′,1″-terphenyl]-4-yl propionate] | 820 nM | 1740 nM | 3900 nM |  |  | 
4-(4′-amino-4-bromo-4″-sulfamoyl-[1,1′:3′,1″-terphenyl]-5′-yl)piperazine-1-carboxamide [HPN-01624] |  |  |  | 1300 nM | 7540 nM | 13500 nM
Cc1cccc(NC(=O)/C=C/c2cc(C(N)=O)c(N)c(-c3ccc(S(N)(=O)=O)cc3)c2)c1 [HPN-01127, (E)-2-amino-5-(3-oxo-3-(m-tolylamino)prop-1-en-1-yl)-4═-sulfamoyl-[1,1′-biphenyl]-3-carboxamide] |  |  |  | 330 nM | 1170 nM | 3370 nM
NC(=O)c1cc(-c2ccc(Cl)cc2)cc(Sc2cccc(S(N)(=O)=O)c2)c1N [HPN-01414, 4-amino-4′-chloro-5-((3-sulfamoylphenyl)thio)-[1,1′-biphenyl]-3-carboxamide] | 1570 nM | 3940 nM | 9860 nM |  |  | 
CCOC(=O)/C=C/c1cc(C(N)=O)c(N)c(-c2ccc(S(N)(=O)=O)cc2)c1 [HPN-01115, ethyl (E)-3-(6-amino-5-carbamoyl-4′-sulfamoyl-[1,1′-biphenyl]-3-yl)acrylate] | 2350 nM | 6420 nM | 5990 nM |  |  | 
NC(=O)N1CCN(c2cc(-c3ccc(Cl)cc3)cc(-c3ccc(S(N)(=O)=O)cc3)c2N)CC1 [HPN-01623, 4-(4′-amino-4-chloro-4″-sulfamoyl-[1, 1′:3′,1″-terphenyl]-5′-yl)piperazine-1-carboxamide] | 15300 nM | 38100 nM | 50000 nM |  |  | 
NC(=O)c1cc(-c2ccc(Cl)cc2)cc(OCCc2ccc(S(N)(=O)=O)cc2)c1N [HPN-01423, 4-amino-4′-chloro-5-(4-sulfamoylphenethoxy)-[1,1′-biphenyl]-3-carboxamide] | 810 nM | 1360 nM | 2370 nM |  |  | 
Cc1ccccc1C(=O)OCC#Cc1cc(C(N)=O)c(N)c(-c2ccc(S(N)(=O)=O)cc2)c1 [HPN-01212, 3-(6-amino-5-carbamoyl-4′-sulfamoyl-[1,1′-biphenyl]-3-yl)prop-2-yn-1-yl 2-methylbenzoate] | 750 nM | 2270 nM | 1850 nM |  |  | 
NC(=O)c1cc(-c2ccc(Cl)cc2)cc(-c2ccc(S(N)(=O)=O)cc2)c1NC(=O)c1cccnc1 [HPN-01529, N-(5′-carbamoyl-4-chloro-4″-sulfamoyl-[1,1′:3′,1″-terphenyl]-4′-yl)nicotinamide] | 1670 nM | 3090 nM | 18800 nM |  |  | 
Nc1c(C(=O)Nc2cccc(F)c2)cc(-c2ccc(Cl)cc2)cc1-c1ccc(S(N)(=O)=O)cc1 [HPN-01613, 4′-amino-4-chloro-N-(3-fluorophenyl)-4″-sulfamoyl-[1,1′:3′,1″-terphenyl]-5′-carboxamide] | 1370 nM | 1550 nM | 2200 nM |  |  | 
NC(=O)c1cc(Nc2ccc(Cl)cc2)cc(-c2ccc(S(N)(=O)=O)cc2)c1N [HPN-01312, 2-amino-5-((4-chlorophenyl)amino)-4′-sulfamoyl-[1,1′-biphenyl]-3-carboxamide] | 1450 nM | 7530 nM | 10300 nM |  |  | 
Nc1c(C(=O)NC2CC2)cc(-c2ccc(Cl)cc2)cc1-c1ccc(S(N)(=O)=O)cc1 [HPN-01605, 4′-amino-4-chloro-N-cyclopropyl-4″-sulfamoyl-[1,1′:3′,1″-terphenyl]-5′-carboxamide] | 690 nM | 1780 nM | 2350 nM |  |  | 
Nc1c(C(=O)Nc2ccc(F)c(F)c2)cc(-c2ccc(Br)cc2)cc1-c1ccc(S(N)(=O)=O)cc1 [HPN-01616, 4′-amino-4-bromo-N-(3,4-difluorophenyl)-4″-sulfamoyl-[1,1′:3′,1″-terphenyl]-5′-carboxamide] | 1070 nM | 3570 nM | 6790 nM |  |  | 
Nc1c(C(=O)Nc2cccc(F)c2)cc(-c2ccc(Br)cc2)cc1-c1ccc(S(N)(=O)=O)cc1 [HPN-01614, 4′-amino-4-bromo-N-(3-fluorophenyl)-4″-sulfamoyl-[1,1′:3′,1″-terphenyl]-5′-carboxamide] | 820 nM | 5650 nM | 8600 nM |  |  | 
COC(=O)c1ccc(-c2cc(C(N)=O)c(N)c(-c3ccc(S(N)(=O)=O)cc3)c2)cc1 [HPN-01301, methyl 4′-amino-5′-carbamoyl-4″-sulfamoyl-[1,1′:3′,1″-terphenyl]-4-carboxylate] | 1190 nM | 3440 nM | 5350 nM |  |  | 
NC(=O)c1cc(C#CCOC(=O)c2ccc(O)cc2)cc(-c2ccc(S(N)(=O)=O)cc2)c1N [HPN-01220, 3-(6-amino-5-carbamoyl-4′-sulfamoyl-[1,1′-biphenyl]-3-yl)prop-2-yn-1-yl 4-hydroxybenzoate] | 460 nM | 1590 nM | 3210 nM |  |  | 
Nc1c(C(=O)Nc2ccc[nH]2)cc(-c2ccc(Cl)cc2)cc1-c1ccc(S(N)(=O)=O)cc1 [HPN-01626, 4′-amino-4-chloro-N-(1H-pyrrol-2-yl)-4″-sulfamoyl-[1,1′:3′,1″-terphenyl]-5′-carboxamide] | 3050 nM | 7220 nM | 12500 nM |  |  | 
NC(=O)c1cc(Oc2cccc(Cl)c2)cc(-c2ccc(S(N)(=O)=O)cc2)c1N [HPN-01316, 2-amino-5-(3-chlorophenoxy)-4′-sulfamoyl-[1,1′-biphenyl]-3-carboxamide] | 5920 nM | 8020 nM | 11200 nM |  |  | 
NCC(=O)Nc1c(C(N)=O)cc(-c2ccc(Br)cc2)cc1-c1ccc(S(N)(=O)=O)cc1 [HPN-01527, 4′-(2-aminoacetamido)-4-bromo-4″-sulfamoyl-[1,1′:3′,1″-terphenyl]-5′-carboxamide] | 2600 nM | 5250 nM | 5690 nM |  |  | 
NCCC(=O)Nc1c(C(N)=O)cc(-c2ccc(Br)cc2)cc1-c1ccc(S(N)(=O)=O)cc1 [HPN-01514, 4′-(3-aminopropanamido)-4-bromo-4″-sulfamoyl-[1,1′:3′,1″-terphenyl]-5′-carboxamide] | 1150 nM | 2830 nM | 5100 nM |  |  | 
Nc1c(C(=O)Nc2ccsc2)cc(-c2ccc(Cl)cc2)cc1-c1ccc(S(N)(=O)=O)cc1 [HPN-01627, 4′-amino-4-chloro-4″-sulfamoyl-N-(thiophen-3-yl)-[1,1′:3′,1″-terphenyl]-5′-carboxamide] | 1200 nM | 1950 nM | 4310 nM |  |  | 
Cc1cccc(C(=O)OCC#Cc2cc(C(N)=O)c(N)c(-c3ccc(S(N)(=O)=O)cc3)c2)c1 [HPN-01215, 3-(6-amino-5-carbamoyl-4′-sulfamoyl-[1,1′-biphenyl]-3-yl)prop-2-yn-1-yl 3-methylbenzoate] | 610 nM | 3720 nM | 6780 nM |  |  | 
NCCC(=O)Nc1c(C(N)=O)cc(-c2ccc(Cl)cc2)cc1-c1ccc(S(N)(=O)=O)cc1 [HPN-01530, 4′-(3-aminopropanamido)-4-chloro-4″-sulfamoyl-[1,1′:3′,1″-terphenyl]-5′-carboxamide] |  |  |  | 460 nM | 3940 nM | 9400 nM

Source: patent publication US11000491B2, “Amino-aryl-benzamide compounds and methods of use thereof” (HEPANOVA, INC., priority 2017, dated 2021)
